Assay results from publication PMC3791940, “Compounds from Gum Ammoniacum with Acetylcholinesterase Inhibitory Activity” (Scientia Pharmaceutica, 2013).
Where two headings read alike, the source gives them in different places.

Molecular target: T1, AChE from electric eel (Electrophorus electricus, UniProt O42275)
T1 construct: purchased Sigma (St. Louis, USA)
Experiment: Quantitative colorimetric microplate assay based on Ellman's method for AChE inhibitory activity
Assay type: biochemical
Settings: for IC50: read-out: IC50, inhibition of AchE (converted)
Experimental: The tested concentrations of the samples ranged from 1.56 to 200 μg/mL. Based on the resulting curves, the IC50 values for AChE inhibition were calculated using the respective curves’ equations (Table 1).
Acetylthiocholine iodide (ATCI) and chelidonine were obtained from Fluka (Buchs, Switzerland). Fast Blue B salt (FBS) and silica gel 60 were from Merck (Darmstadt, Germany). The solvents MeOH, EtOAc, CH2Cl2, and CHCl3 were purchased from VWR (Vienna, Austria). Two different buffer systems were used (buffer A: 50 mM Tris-HCl, pH 7.9 containing 0.1% BSA; buffer B: 50 mM Tris-HCl, pH 7.9 containing 0.1 M NaCl and 0.02 M MgCl2·6H2O).
A quantitative colorimetric assay based on Ellman’s method was used to measure the AChE inhibitory activities of the substances. Briefly, in a 96-well plate, 25 μL of 15 mM ATCI, 125 μL of 3 mM DTNB in buffer B, 50 μL of buffer A, and 25 μL of the extract or the isolated substances (from 15.6 μg/mL to 2.0 mg/mL in 10% DMSO) were thoroughly mixed and the absorbance was read at 405 nm five times every 15 s. Finally, 25 μL of AChE (0.22 U/mL in buffer A) were added and the plate was incubated at 25°C for 10 minutes. Then the absorbance was measured again eight times every 15 s. A 10% DMSO solution was used as the negative control. To compensate for any increase in absorbance due to the color of the extracts or spontaneous hydrolysis of the substrate, the absorbance before the addition of the enzyme was subtracted from the absorbance after adding the enzyme. The assay was repeated three times for every concentration.

[1] = n=3, 25°C, 10 min incubation, tested 1.56 to 200 μg/mL
[2] = n=3, same values given in molar unit

T1 sequence (O42275 24-633): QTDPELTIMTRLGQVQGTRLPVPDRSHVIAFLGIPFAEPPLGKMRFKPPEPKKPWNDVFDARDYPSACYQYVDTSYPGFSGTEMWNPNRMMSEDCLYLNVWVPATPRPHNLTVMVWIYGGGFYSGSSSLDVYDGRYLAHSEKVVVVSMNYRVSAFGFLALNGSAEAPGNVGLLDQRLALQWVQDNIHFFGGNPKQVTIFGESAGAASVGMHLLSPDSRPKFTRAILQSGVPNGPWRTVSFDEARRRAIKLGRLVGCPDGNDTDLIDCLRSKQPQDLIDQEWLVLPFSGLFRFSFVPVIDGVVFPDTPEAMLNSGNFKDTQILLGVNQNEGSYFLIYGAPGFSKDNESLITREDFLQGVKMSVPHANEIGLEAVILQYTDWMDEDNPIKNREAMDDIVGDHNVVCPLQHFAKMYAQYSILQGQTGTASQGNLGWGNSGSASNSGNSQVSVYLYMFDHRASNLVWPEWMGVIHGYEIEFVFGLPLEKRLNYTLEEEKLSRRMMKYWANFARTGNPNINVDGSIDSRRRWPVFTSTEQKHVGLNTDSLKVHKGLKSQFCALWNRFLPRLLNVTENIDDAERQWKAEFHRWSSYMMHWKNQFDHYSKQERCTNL

| SMILES | AChE inhibitory activity (in words) | IC50 [1] | IC50 [2] | times more active than compounds 1, 2 and 4 (AChE inhibition) (comparison of IC50 values) |
| --- | --- | --- | --- | --- |
| C=C[C@]1(C)CC[C@@H](C(C)C(O)C(=O)C=C(C)C)C12C(=O)Oc1cc(OC)ccc1C2=O (stereo partly drawn) [Compound 1, (2′S,5′S)-2′-ethenyl-5′-(3hydroxy-6-methyl-4-oxohept-5-en-2-yl)-7-methoxy-2′-methyl-4H-spiro[chromene-3,1′-cyclopentane]-2,4-dione] | only low activities | 181 µM | 181 µM | – |
| C=C[C@]1(C)CC[C@H]([C@@H](C)C(=O)[C@H](O)C=C(C)C)C12C(=O)Oc1cc(OC)ccc1C2=O (stereo partly drawn) [Compound 2, (2′S,5′R)-2′-ethenyl-5′-[(2R,4R)-4-hydroxy-6-methyl-3-oxohept-5-en-2-yl]-7-methoxy-2′-methyl-4H-spiro[chromene-3,1′-cyclopentane]-2,4-dione] | only low activities | 236 µM | 237 µM | – |
| CC(C)=CCC/C(C)=C/CC/C(C)=C/Cc1c(O)c2ccc(O)cc2oc1=O [Compound 4, 4,7-dihydroxy-3-[(2E,6E)-3,7,11-trimethyldodeca-2,6,10-trien-1-yl]-2H-chromen-2-one] | only low activities | 201 µM | 201 µM | – |
| CC(C)=CCC/C(C)=C/CC/C(C)=C/CCC(=O)c1ccc(O)cc1O [Compound 3, (4E,8E)-1-(2,4-dihydroxyphenyl)-5,9,13-trimethyltetradeca-4,8,12-trien-1-one] | – | 23.4 µM | 23.5 µM | about 10 times |
